Source: publication PMC10840383, “Clinical features, functional consequences, and rescue pharmacology of missense GRID1 and GRID2 human variants” (Human Molecular Genetics, 2023)
Residue numbers refer to the chain shown, from its start.

Experiments:
Format in all cases: cell-based
[1] = biological target: T1, GluD2-R710W (Rattus norvegicus, UniProt Q63226, R710W); assay: TEVC of constitutive current, Xenopus oocytes expressing GluD2-R710W; conditions: positive = increase, negative = decrease of activity
T1 construct: expressed in transfected cells; host or cells: Xenopus laevis oocytes injected with cRNA
T1 sequence (Q63226 24-1007 R710W): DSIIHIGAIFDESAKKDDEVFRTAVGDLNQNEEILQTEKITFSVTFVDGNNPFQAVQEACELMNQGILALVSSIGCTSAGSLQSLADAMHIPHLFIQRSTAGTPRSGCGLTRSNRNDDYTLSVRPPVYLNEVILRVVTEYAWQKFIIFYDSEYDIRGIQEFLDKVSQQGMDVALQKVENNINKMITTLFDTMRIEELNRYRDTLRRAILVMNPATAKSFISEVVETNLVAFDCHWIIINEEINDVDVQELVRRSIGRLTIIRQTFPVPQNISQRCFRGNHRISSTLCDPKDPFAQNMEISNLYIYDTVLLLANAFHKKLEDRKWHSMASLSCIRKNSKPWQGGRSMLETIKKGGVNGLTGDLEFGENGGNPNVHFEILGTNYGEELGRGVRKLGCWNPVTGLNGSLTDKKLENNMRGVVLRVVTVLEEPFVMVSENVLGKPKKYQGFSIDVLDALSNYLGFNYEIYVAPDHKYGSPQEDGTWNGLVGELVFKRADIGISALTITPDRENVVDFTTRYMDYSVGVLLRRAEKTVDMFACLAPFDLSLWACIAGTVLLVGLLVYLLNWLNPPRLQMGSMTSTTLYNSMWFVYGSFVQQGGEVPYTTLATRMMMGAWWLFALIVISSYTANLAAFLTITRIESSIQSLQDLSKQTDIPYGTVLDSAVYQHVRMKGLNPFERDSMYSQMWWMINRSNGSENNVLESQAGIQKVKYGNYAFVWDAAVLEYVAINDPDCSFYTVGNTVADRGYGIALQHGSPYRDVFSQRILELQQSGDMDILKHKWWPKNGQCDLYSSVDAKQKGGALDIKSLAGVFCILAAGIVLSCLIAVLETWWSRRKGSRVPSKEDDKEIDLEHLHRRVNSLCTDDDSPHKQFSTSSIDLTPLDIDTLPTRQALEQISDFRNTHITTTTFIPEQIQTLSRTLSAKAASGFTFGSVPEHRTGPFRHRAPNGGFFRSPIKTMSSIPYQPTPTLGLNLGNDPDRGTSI

[2] = biological target: T2, GluD2-WT (Rattus norvegicus, UniProt Q63226); assay: TEVC of constitutive current, Xenopus oocytes expressing GluD2-WT
T2 construct: expressed in transfected cells; host or cells: Xenopus laevis oocytes injected with cRNA
T2 sequence (Q63226 24-1007): T1 sequence (Q63226 24-1007 R710W) with W687R

[3] = biological target: T3, GluD2-T649M (Rattus norvegicus, UniProt Q63226, T649M); assay: TEVC of constitutive current, Xenopus oocytes expressing GluD2-T649M; conditions: positive = increase, negative = decrease of activity
T3 construct: expressed in transfected cells; host or cells: Xenopus laevis oocytes injected with cRNA
T3 sequence (Q63226 24-1007 T649M): T1 sequence (Q63226 24-1007 R710W) with T626M, W687R

| D-Serine effect (Baseline −10 mM D-Serine) ([1]; 10 mM D-serine) | Effect on difference current, in words ([2]; 10 mM D-serine) | D-Serine effect (Baseline −10 mM D-Serine) ([2]; 10 mM D-serine, positive = increase, negative = decrease of activity) | D-Serine effect (Baseline −10 mM D-Serine) ([3]; 10 mM D-serine) | Structure (SMILES) | Pentamidine effect (Baseline −100 μM Pentamidine) ([1]; 100 μM pentamidine) | Pentamidine effect (Baseline −100 μM Pentamidine) ([2]; 100 μM pentamidine, positive = increase, negative = decrease of activity) | Pentamidine effect (Baseline −100 μM Pentamidine) ([3]; 100 μM pentamidine) |
| --- | --- | --- | --- | --- | --- | --- | --- |
| −2.3 ± 0.60 (11) nA | minimal activity | −3.6 ± 1.0 (14) nA | −0.31 ± 2.8 (16) nA | N[C@H](CO)C(=O)O [D-serine] | – | – | – |
| – | – | – | – | N=C(N)c1ccc(OCCCCCOc2ccc(C(=N)N)cc2)cc1 [Pentamidine, pentamidine] | 0.82 ± 1.9 (11) nA | 3.6 ± 4.8 (14) nA | 5.8 ± 7.0 (16) nA |
